# Results as given in patent US8410138B2, “Compounds for activating TGF-beta signaling” (The Board of Trustees of the Leland Stanford Junior …, priority 2007, dated 2013).
# Read-outs that look alike come from different tables or passages of the source.
# Experiments:
# [1] = tested on: TGF-β signaling (SBE-SEAP reporter) in MFB-F11 cells; format: cell-based, mouse; conditions: for Relative TGF-β activity, fold change compared with vehicle: cell reporter assay; for TGF-β agonist activity: data of FIGS. 1A-1J
# Experimental: All compounds were tested twice, in duplicate, using the MFB-F11 cell line. 80 compounds were selected for further study based on induction of the reporter gene in any of the replicates. These compounds were tested again in MFB-F11 or C6-H4 cells, either alone or in the presence of 100 pg/ml of TGF-β1, to test for synergistic activities.
# [2] = tested on: fibroblasts lacking Smad2, Smad3 or Smad4; test: SBE reporter signaling in fibroblasts lacking elements of the TGF-β signaling pathway; format: cell-based; conditions: Smad4-lacking fibroblasts; FIG. 2D
# Description: To understand how the TGF-β signaling agonists function and identify molecular genetic targets in cells, fibroblasts lacking different elements of the TGF-β3 signaling pathway, including Smad2, Smad3, and Smad4, were used in combination with plasmids encoding different inhibitors of the TGF-β signaling pathway to study TGF-β agonists in different backgrounds. For reference, the canonical TGF-β signaling pathway is illustrated in FIG. 2A. The biological actions of TGF-β1 are mediated through interactions with the type 2 TGF beta receptor (TBR2) 2 and the type I TGF beta receptor (TBRI) 3. Betaglycan 4 may participate in the binding of TGF-β1. Receptor activation leads to the phosphorylation of Smad proteins, such as Smad 2/3 5 and Smad 4 6, which translocate to the nucleus 7 to bind to the Smad DNA-binding element (SBE) 8, present in numerous genes, in combination with transcription factors (TF) 9. Smad 7 10 is inhibitory with respect to Smad 2/3 5 phosphorylation. Alternative signaling involves p38 11 and the MAP kinase pathway. TAB1 12 activates TAK1 13, which activates p38 11.
# Because Smad2 and Smad3 can substitute for each other, results with Smad2 or Smad3 knock-out fibroblasts were more difficult to interpret. Nonetheless, the synergistic effect of TGF-β1 and 11H was blocked in the absence of Smad2 (FIG. 2B) or Smad3 (not shown). In these assays, signaling is reported via SBE elements, which are specific elements that bind Smad proteins. Thus, the 11H compound must signal through this element. Without being limited to theory, it is believed that the 3A compound functions as a competitive agonist of Smad binding to the SBE, representing a novel target and mode of action.
# [3] = tested on: TGF-β signaling in the brain; test: SBE-luc mice after lipopolysaccharide (LPS) administration; format: in vivo, mouse
# Description: SBE-luc mice can also be used to monitor activation of TGF-β signaling in response to glial activation after lipopolysaccharide (LPS) administration.
# [4] = tested on: TGF-β signaling (SBE-luc reporter) in brain; test: Bioluminescence and tissue luciferase in SBE-luc reporter mice; format: in vivo, mouse; conditions: peripheral administration; FIG. 3E; indicates BBB passage
# Description: Transgenic mice harboring the SBE-luc reporter gene were generated and used to test the present compositions in vivo. These “reporter mice” mice express SBE-luc (i.e., “the transgene”) in all cells of the body.^1,54 Intraperitoneal injection of luciferin into SBE-luc mice produces bioluminescence generated by luciferase and photons penetrating the skull can be imaged using sensitive camera systems.^1,54
# To determine whether 3A and its analogs are bioactive in vivo and able to penetrate the blood brain barrier (BBB), TGF-β1, 3A, 22B02, or 13A04 were injected into reporter mice i.p. or s.q. The animals were then sacrificed at the indicated times following injection. […] There was no obvious activation of the reporter in other organs.
# Bioactivity data were confirmed by biochemical measurements of tissue luciferase in hippocampal homogenates (FIG. 3E).
# Two-month old SBE-luciferase transgenic mice receive different concentrations of a test compound either s.q., i.p., or orally by gavage. […] Following administration of the test or control compounds, mice are injected with luciferin i.p. At, e.g., 2, 8, and 16 hours following injection of luciferin, the mice are imaged to detect bioluminescence as described above. Brains may be harvested 16 hours following test compound injection, and may be divided sagittally. […]
# [5] = tested on: primary hippocampal neurons from E16 mouse embryos; format: cell-based; conditions: Aβ oligomers inducing 50-70% cell death; 13A04 3 μM, TGF-β1 10 ng/ml; 24 hours
# Experimental: (§1) FIG. 1H is a graph showing the relative amount of surviving 6-7 DIV hippocampal neurons of E16 mice following exposure to culture medium (CM) alone, 13A04 (3 μM), or CM containing Aβ at 2 or 5 μM with TGF-β1 (10 ng/ml) or 13A04 (3 μM). After 24 hours, cultures were fixed and surviving cells were counted. Data represent mean±SEM, n=3-7 fields counted per plate. All conditions were compared to Aβ using the Mann-Whitney test (* p<0.05, ** p<0.01). FIG. 1I is a graph showing the relative gene expression levels of the indicated TGF-β-responsive genes induced in MFB-F11 fibroblasts stimulated with TGF-β1 (yellow) or 13A04 (blue) for 24 h. mRNA was extracted, labeled and hybridized to gene expression arrays tailored for the TGF-β pathway.
# Moreover, the small-molecule TGF-β agonist was not toxic at 3 μM and 10 μM (not shown).
# Primary mixed neuronal cultures are exposed to Aβ oligomers and treated with compounds (0 to 10 μM concentration) and cell survival is measured using lactate dehydrogenase (LDH) release or by counting 4,6-diamidino-2-phenylindole (DAPI)-stained cells. […] Neuritic dystrophy in 21 DIV neurons can also be measured by quantifying the tortuosity of neurites as described by Ferreira et al.^70 and modified by others. […] Further incubation of these cells with the present compounds provides a sensitive assay for neuroprotection.
# [6] = tested on: TGF-β-responsive genes in MFB-F11 fibroblasts; test: Microarray of TGF-β pathway gene expression in tgfb1−/− fibroblasts; format: cell-based, mouse; conditions: 1, 5, 24 hours
# Experimental: as §1
# A microarray assay was used to identify changes in gene expression caused by stimulating tgfb1^−/− fibroblasts with TGF-β1 or 13A04. mRNA was harvested 1, 5, and 24 hours following stimulation of tgfb1^−/− fibroblasts with TGF-β1 (or control) and analyzed for differential expression of 128 genes related to TGF-β signaling, using a commercially available filter array (Superarray Bioscience Corp.; FIG. 1I). […]
Compound,"Relative TGF-β activity, fold change compared with vehicle ([1]; 3 μM) [fold]","Relative TGF-β activity, fold change compared with vehicle ([1]; 10 μM) [fold]","Relative TGF-β activity, fold change compared with vehicle ([1]; 30 μM) [fold]","Relative TGF-β activity, fold change compared with vehicle ([1]; 100 μM) [fold]",further results
"COCCN(CC(=O)N(CCc1c[nH]c2ccccc12)Cc1ccccc1)C(=O)Cc1cccs1 [Compound 3A, N-(2-(1H-indol-3-yl)ethyl)-N-benzyl-2-(N-(2-methoxyethyl)-2-(thiophen-2-yl)acetamido)acetamide]",1.7,2.9,5.2,11.4,TGF-β agonist activity [1]: TGF-β-agonists; Signaling in the absence of Smad4 [2]: not affected (or was even stronger)
"CCOC(=O)CNC(=O)Nc1ccc(N2CCN(c3ccccc3OC)CC2)c(C(=O)NC(C)c2ccccc2)c1 (stereo not drawn) [Compound 5E, ethyl 2-(3-(4-(4-(2-methoxyphenyl)piperazin-1-yl)-3-(1-phenylethylcarbamoyl)phenyl)ureido)acetate]",,,,,TGF-β agonist activity [1]: TGF-β-agonists
COCCN(CC(=O)N(CCc1c[nH]c2ccccc12)Cc1ccc(F)cc1)C(=O)C(C)Cl (stereo not drawn) [Compound 13F03],1.3,1.9,3.8,9.1,
COCCCN(CC(=O)N(CCc1c[nH]c2ccccc12)Cc1ccc(C(F)(F)F)cc1)C(=O)C1CC1c1ccccc1 (stereo not drawn) [Compound 21A08],1.1,1.5,1.9,2.7,
Cc1ccc(C(=O)N(CC(=O)N(CCc2c[nH]c3ccccc23)Cc2ccc(C(F)(F)F)cc2)C(C)C)cc1[N+](=O)[O-] [Compound 21F11],0.8,1.6,2.7,6.5,
COCCN(CC(=O)N(CCc1c[nH]c2ccccc12)Cc1ccc(F)cc1)C(=O)c1ccc(Cl)c([N+](=O)[O-])c1 [Compound 22B05],1.1,1.2,1.7,2.8,
COCCCN(CC(=O)N(CCc1c[nH]c2ccccc12)Cc1ccc(F)cc1)C(=O)c1ccccc1Cl [Compound 22D03],1.4,3.7,8.3,8.8,
COCCCN(CC(=O)N(CCc1c[nH]c2ccccc12)Cc1ccc(F)cc1)C(=O)c1ccc(C(F)(F)F)cc1 [Compound 22E02],1.4,4.7,8.6,9.1,
CC(C)N(CC(=O)N(CCc1c[nH]c2ccccc12)Cc1ccc(N(C)C)cc1)C(=O)C(Cl)Cl [Compound 23B08],1.1,1.8,3.1,4.5,
CCOC(=O)CCC(=O)N(CC(=O)N(CCc1c[nH]c2ccccc12)Cc1ccc(N(C)C)cc1)C(C)C [Compound 23D05],0.8,1.1,1.7,4.7,
COCCN(CC(=O)N(CCc1c[nH]c2ccccc12)Cc1ccc(OC)c(OC)c1)C(=O)C(Cl)Cl [Compound 24D04],1.2,1.1,1.5,2.7,
CC(C)N(CC(=O)N(CCc1c[nH]c2ccccc12)Cc1ccc(Cl)c(Cl)c1)C(=O)CC(C)(C)C [Compound 37C02],0.7,1.0,1.4,3.1,
CC(C)(CCl)C(=O)N(CC(=O)N(CCc1c[nH]c2ccccc12)Cc1ccccc1)C1CC1 [Compound 44A04],1.2,2.3,2.7,2.8,
CC(C(=O)O)c1ccc(-c2ccccc2)c(F)c1 (stereo not drawn) [flurbiprofen],,,,,TGF-β signaling in the brain after LPS (bioluminescence) ([3]; FIG. 4E): strongly reduced; Microglial activation after LPS ([3]; data not shown): strongly reduced
"TGF-β1: recombinant transforming growth factor-β1, reference activator of the TGF-β signaling pathway",,,,,"TGF-β signaling in vivo, tissue luciferase in hippocampal homogenates [4]: activated TGF-β signaling in vivo; Protection of neurons against Aβ toxicity (survival) [5]: consistently protected neurons and increased survival; Signaling in the absence of Smad4 [2]: blocked or strongly inhibited; Expression of TGF-β signaling genes (Fos, Jun, Myc, Smad1, Smad2, Smad3, Interleukin-6) [6]: induced"
